The text below walks through data of ChEMBL document CHEMBL3797114, “Design, synthesis and biological evaluation of 6-substituted pyrrolo[2,3-d]pyrimidines as dual inhibitors of TS and AICARFTase and as potential antitumor agents” (Eur J Med Chem, 2016).

Calls of active or inactive are those of the source. The rule behind the calls is not given here.

For test [1], the system named is KB. The test can be described thus: Antiproliferative activity against human KB cells after 72 hrs by MTT assay in presence of leucovorin. The format is functional, cell-based. In general terms: Tetrazolium assays rely on reduction of a dye to a coloured formazan, in cell work by metabolically active cells.
Test [2] in a line: Cell cycle arrest in human SW620 cells assessed as accumulation at S phase at 10 uM after 96 hrs by propidium iodide staining based flow cytometry in presence of leucovorin (reference value: 27.3 %). As to conditions: SW-620. The format is functional.
Test [3] in a line: Antiproliferative activity against human SW620 cells after 72 hrs by MTT assay in presence of leucovorin. Type of test: functional, cell-based. Conditions: SW-620, 72 h.
Test [4] deals with SW-620. The test can be described thus: Induction of apoptosis in human SW620 cells assessed as viable cells at 10 uM after 48 hrs by annexin V-FITC/PI staining based flow cytometry in presence of leucovorin (reference value: 84.0 %). Conditions: SW-620, 48 h, read-out: Activity. Type of test: functional.
For test [5], the system named is SW-620. Briefly: Induction of apoptosis in human SW620 cells assessed as early apoptotic cells at 10 uM after 48 hrs by annexin V-FITC/PI staining based flow cytometry in presence of leucovorin (reference value: 0.6 %). The format is functional. On the technique in general: A flow cytometer gives signals particle by particle.
The test system of test [6] is SW-620. The test can be described thus: Induction of apoptosis in human SW620 cells assessed as necrotic cells at 10 uM after 48 hrs by annexin V-FITC/PI staining based flow cytometry in presence of leucovorin (reference value: 9 %). The format is functional.
In test [7] the target is GAR transformylase/AICAR transformylase (Homo sapiens) (UniProt P31939+P22102). Briefly: Inhibition of GARFTase/AICARFTase in human SW620 cells assessed as growth inhibition at 0.001 to 10 uM coincubated with adenosine. Type of test: cell-based. Conditions: SW-620.
Test [8] has as its system SW-620. Briefly: Induction of apoptosis in human SW620 cells assessed as late apoptotic cells at 10 uM after 48 hrs by annexin V-FITC/PI staining based flow cytometry in presence of leucovorin (reference value: 6.4 %). The format is functional.
The target of test [9] is Thymidylate synthase/GAR transformylase/AICAR transformylase (Homo sapiens) (UniProt P04818+P31939+P22102). Briefly: Inhibition of thymidylate synthase/GARFTase/AICARFTase in human SW620 cells assessed as growth inhibition at 0.001 to 10 uM coincubated with thymidine and adenosine. Type of test: cell-based. As to conditions: SW-620.
In test [10] the target is Thymidylate synthase (Homo sapiens) (UniProt P04818). Briefly: Inhibition of thymidylate synthase in human SW620 cells assessed as growth inhibition at 0.001 to 10 uM coincubated with excessive thymidine. Type of test: cell-based. Conditions: SW-620.
A short description of test [11]: Cell cycle arrest in human SW620 cells assessed as accumulation at G1 phase at 10 uM after 96 hrs by propidium iodide staining based flow cytometry in presence of leucovorin (reference value: 62.4 %). The format is functional. Conditions: SW-620.
For test [12], the target named is Thymidylate synthase/AICAR transformylase (Homo sapiens) (UniProt P04818+P31939). The test can be described thus: Inhibition of thymidylate synthase/AICARFTase in human SW620 cells assessed as growth inhibition at 0.001 to 10 uM coincubated with AICA and […]. Conditions: SW-620. Type of test: cell-based.
The test system of a further test is A549. The test can be described thus: Antiproliferative activity against human A549 cells after 72 hrs by MTT assay in presence of leucovorin. Conditions: A549, 72 h. Type of test: functional, cell-based.
The nature of test [13]: Cell cycle arrest in human SW620 cells assessed as accumulation at G2 phase at 10 uM after 96 hrs by propidium iodide staining based flow cytometry in presence of leucovorin (reference value: 10.3 %). Type of test: functional. Conditions: SW-620.
Test [14] concerns the target Bifunctional purine biosynthesis protein ATIC (Homo sapiens) (UniProt P31939). The test can be described thus: Inhibition of AICARFTase in human SW620 cells assessed as growth inhibition at 0.001 to 10 uM coincubated with AICA. The format is cell-based. Conditions: SW-620.
Test [15] deals with KB. Briefly: Inhibition of colony formation in human KB cells at 1 uM measured after 10 to 14 days by methylene blue staining based assay presence of leucovorin. The format is functional.

GAR transformylase/AICAR transformylase (Homo sapiens), sequence (P22102 whole entry, looked up): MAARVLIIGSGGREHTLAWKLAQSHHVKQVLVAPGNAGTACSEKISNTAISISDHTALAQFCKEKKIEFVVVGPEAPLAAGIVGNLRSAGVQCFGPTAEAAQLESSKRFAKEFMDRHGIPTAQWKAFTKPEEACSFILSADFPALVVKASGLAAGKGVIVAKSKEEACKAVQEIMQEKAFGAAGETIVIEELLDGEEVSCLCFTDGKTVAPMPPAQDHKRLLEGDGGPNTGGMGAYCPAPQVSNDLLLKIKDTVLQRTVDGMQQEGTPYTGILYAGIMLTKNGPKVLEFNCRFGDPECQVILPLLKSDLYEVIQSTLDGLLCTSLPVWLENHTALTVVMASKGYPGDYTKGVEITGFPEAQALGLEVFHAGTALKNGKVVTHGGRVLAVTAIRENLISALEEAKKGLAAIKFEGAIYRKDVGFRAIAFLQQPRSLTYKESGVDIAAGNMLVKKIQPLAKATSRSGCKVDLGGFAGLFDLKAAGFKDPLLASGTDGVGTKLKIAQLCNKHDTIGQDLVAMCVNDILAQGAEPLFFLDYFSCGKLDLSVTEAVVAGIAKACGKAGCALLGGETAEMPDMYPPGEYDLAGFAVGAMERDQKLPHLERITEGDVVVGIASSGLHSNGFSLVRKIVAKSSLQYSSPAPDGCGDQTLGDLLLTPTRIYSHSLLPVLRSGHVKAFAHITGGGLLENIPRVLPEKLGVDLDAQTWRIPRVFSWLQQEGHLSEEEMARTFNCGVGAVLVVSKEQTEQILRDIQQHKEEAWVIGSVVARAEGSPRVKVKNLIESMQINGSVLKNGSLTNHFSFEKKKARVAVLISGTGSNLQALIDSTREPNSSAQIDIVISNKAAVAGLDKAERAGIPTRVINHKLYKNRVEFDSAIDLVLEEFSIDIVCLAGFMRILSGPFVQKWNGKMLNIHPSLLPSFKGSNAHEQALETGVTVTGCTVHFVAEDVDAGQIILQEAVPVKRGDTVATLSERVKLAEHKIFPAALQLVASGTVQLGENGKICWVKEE
GAR transformylase/AICAR transformylase (Homo sapiens), sequence (P31939 whole entry, looked up): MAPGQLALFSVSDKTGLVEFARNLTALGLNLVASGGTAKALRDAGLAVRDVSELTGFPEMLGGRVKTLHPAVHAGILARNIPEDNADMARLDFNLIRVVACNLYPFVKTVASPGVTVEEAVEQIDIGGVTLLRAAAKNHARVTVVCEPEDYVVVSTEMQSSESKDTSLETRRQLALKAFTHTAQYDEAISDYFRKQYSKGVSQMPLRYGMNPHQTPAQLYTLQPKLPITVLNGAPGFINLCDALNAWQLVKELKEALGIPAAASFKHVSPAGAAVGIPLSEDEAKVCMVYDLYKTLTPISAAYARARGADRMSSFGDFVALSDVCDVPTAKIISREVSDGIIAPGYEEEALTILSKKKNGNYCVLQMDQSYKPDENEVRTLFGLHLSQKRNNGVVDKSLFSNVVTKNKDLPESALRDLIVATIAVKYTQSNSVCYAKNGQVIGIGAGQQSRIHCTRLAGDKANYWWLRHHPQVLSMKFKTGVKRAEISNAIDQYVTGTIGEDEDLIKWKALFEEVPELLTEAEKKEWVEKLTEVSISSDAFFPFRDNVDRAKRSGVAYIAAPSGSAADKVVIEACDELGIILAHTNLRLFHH
Bifunctional purine biosynthesis protein ATIC (Homo sapiens), sequence (P31939 whole entry, looked up): as above
Thymidylate synthase/GAR transformylase/AICAR transformylase (Homo sapiens), sequence (P04818 whole entry, looked up): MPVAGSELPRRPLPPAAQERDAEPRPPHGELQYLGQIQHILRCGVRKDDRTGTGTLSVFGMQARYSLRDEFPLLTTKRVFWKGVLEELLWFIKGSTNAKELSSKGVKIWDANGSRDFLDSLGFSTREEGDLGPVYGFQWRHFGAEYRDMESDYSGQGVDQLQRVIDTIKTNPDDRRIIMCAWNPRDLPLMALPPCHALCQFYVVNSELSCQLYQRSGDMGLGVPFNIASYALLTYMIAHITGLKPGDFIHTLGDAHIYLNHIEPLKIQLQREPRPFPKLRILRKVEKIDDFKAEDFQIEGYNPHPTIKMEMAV
Thymidylate synthase/GAR transformylase/AICAR transformylase (Homo sapiens), sequence (P22102 whole entry, looked up): as the sequence (P22102 whole entry, looked up) above
Thymidylate synthase/GAR transformylase/AICAR transformylase (Homo sapiens), sequence (P31939 whole entry, looked up): as the sequence (P31939 whole entry, looked up) above
Thymidylate synthase/AICAR transformylase (Homo sapiens), sequence (P04818 whole entry, looked up): as the sequence (P04818 whole entry, looked up) above
Thymidylate synthase/AICAR transformylase (Homo sapiens), sequence (P31939 whole entry, looked up): as the sequence (P31939 whole entry, looked up) above
Thymidylate synthase (Homo sapiens), sequence (P04818 2-313 limits assumed): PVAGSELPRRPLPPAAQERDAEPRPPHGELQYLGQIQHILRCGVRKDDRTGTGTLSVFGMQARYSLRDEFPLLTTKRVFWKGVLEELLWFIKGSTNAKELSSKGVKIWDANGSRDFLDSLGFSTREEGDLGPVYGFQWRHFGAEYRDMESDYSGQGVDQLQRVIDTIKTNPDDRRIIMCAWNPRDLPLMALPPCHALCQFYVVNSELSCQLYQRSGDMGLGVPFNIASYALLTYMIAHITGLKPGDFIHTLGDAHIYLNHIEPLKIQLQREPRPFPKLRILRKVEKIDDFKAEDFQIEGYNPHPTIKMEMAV

Consider `Nc1nc2[nH]c(CCSCCC(=O)N[C@@H](CCC(=O)O)C(=O)O)cc2c(=O)[nH]1`, for which the IC50 in the test on KB [1] was 0.324 µM; in test [3], 0.387 µM; with A549, 0.713 µM. Besides, the Activity is 39.2% in test [2]; 1.5% with SW-620 [5]; 41.6% in the test with SW-620 [6]; 34.8% in the test on SW-620 [8]; 56.3% in test [11]; 4.5% in test [13]. Also, the viability at 10 µM in the test with SW-620 [4] was determined as 22.1%. The “growth inhibition (GI)” value in [7], in test [9], in test [10], in test [12] and in [14] was “inactive” throughout. The inhibition at 1 µM in the test with KB [15] was 80%.

With `Nc1nc2[nH]c(CCSCC(=O)NCc3ccncc3)cc2c(=O)[nH]1`, the IC50 in the test on KB [1] turned out to be 14.1 µM; in test [3], 22.7 µM; in the test with A549, 42.4 µM.

As for `Nc1nc2[nH]c(CCSCC(=O)NCc3cccnc3)cc2c(=O)[nH]1`, the IC50 with KB [1] came out at 37.5 µM; in test [3], 25.3 µM; with A549, 56.6 µM.

Consider `Nc1nc2[nH]c(CCSCC(=O)NCc3ccccn3)cc2c(=O)[nH]1`, for which the IC50 with KB [1] was found to be 28.4 µM; in test [3], 36.1 µM; with A549, 14.1 µM.

For `Nc1nc2[nH]c(CCSCC(=O)N[C@@H](CCC(=O)O)C(=O)O)cc2c(=O)[nH]1`, the figures for the IC50 (in the test on KB [1]; in [3]; with A549) were 0.373 µM, 0.442 µM and 0.668 µM, respectively.

Consider `Nc1nc2[nH]c(CCSCCC(=O)NCc3cccnc3)cc2c(=O)[nH]1`, for which the IC50 in the test on KB [1] was determined as 0.648 µM; in test [3], 0.665 µM; with A549, 1.07 µM. Besides, the Activity in [2] was found to be 24.9%; in the test with SW-620 [5] it was 1.1%; in the test on SW-620 [6], 22%; with SW-620 [8], 25.1%; in [11], 66.5%; in test [13], 8.6%. Further, the viability at 10 µM in the test on SW-620 [4] came out at 51.8%. Besides, in the test on KB [15], the inhibition at 1 µM is 70%.

Take `Nc1nc2[nH]cc(CCc3ccc(C(=O)N[C@@H](CCC(=O)O)C(=O)O)cc3)c2c(=O)[nH]1` [PEMETREXED]: the figures for the Activity in test [2], in [11] and in [13] were 54.2%, 45.8% and 0%, respectively. In addition, the IC50 was 0.08 µM in test [3] and 1.26 µM with A549.

With `Nc1nc2[nH]c(CCSCCC(=O)NCc3ccccn3)cc2c(=O)[nH]1`, the IC50 with KB [1] is 8.93 µM; in test [3] it was 11.9 µM; with A549, 77.3 µM.

Regarding `CN(Cc1cnc2nc(N)nc(N)c2n1)c1ccc(C(=O)N[C@@H](CCC(=O)O)C(=O)O)cc1` [METHOTREXATE], the IC50 in test [3] is 0.013 µM; in the test on A549, 0.99 µM.

For `Nc1nc2[nH]c(CCSCCC(=O)NCc3ccncc3)cc2c(=O)[nH]1`, the results for the IC50 (in the test with KB [1]; in test [3]; in the test with A549) were 45.6 µM, 24.8 µM and 7.87 µM, respectively.

A word on the IC50: it is the concentration that inhibits the measured activity by half. The inhibition is the change of the read-out against control, counted positive when it falls.
